Assay results: patent publication US8043826B2, “Device for monitoring inhibition of platelet function response” (Medical Innovations International, Inc., priority 2005, dated 2011)

System: platelets
Test: Assaying platelet aspirin response: luciferin/luciferase light emission (extracellular ATP) in arachidonic-acid-treated diluted whole blood drawn before and after taking aspirin
Assay type: cell-based, human
Details: individuals of FIGS. 2A and 2C; blood drawn after aspirin 325 mg; no-aspirin sample very steep
Method: Volunteers who had not taken aspirin in the previous 24 hours underwent a finger prick to draw blood. Blood (2 μl) was diluted into 1 ml of buffer (PBS, 0.9% NaCl, 10 mM sodium phosphate, pH 7.0) in a clear test tube. An aliquot (15 μl) of luciferin/luciferase solution (containing 10 mg/ml luciferin and 10 μg/ml luciferase) was added to the diluted blood. The solution was mixed and placed in a Zylux FEMPTOMASTER FB12 photon counter. A baseline reading of the light emission was taken. The test tube was then withdrawn, and 5 μl of 15 mM arachidonic acid was added to the solution and the solution was mixed. The test tube was then reinserted in the photon counter and light emission readings were taken for approximately 2 to 4 minutes.
The volunteer then swallowed or chewed an aspirin (325 mg). A blood sample was taken, and the process was repeated. The results from blood drawn from an individual before and after taking aspirin were compared.

`CC(=O)Oc1ccccc1C(=O)O` [aspirin] was tested, and the “slope of light emission vs. time after arachidonic acid is added, aspirin sample” value was “almost flat”.
